Results on six molecules are retold here after paper PMC11124136, “New Thiazolidine-4-One Derivatives as SARS-CoV-2 Main Protease Inhibitors” (Pharmaceuticals, 2024).

The structures appear in SMILES notation.

For this experiment, the target named is SARS-CoV-2 Mpro (Severe acute respiratory syndrome coronavirus 2, UniProt P0DTD1). Briefly: biochemical. Conditions: for SARS-CoV-2 Mpro inhibition, result in words: inactivity = IC50 > 30 μM; for IC50: FRET assay, concentration reducing Mpro activity by 50%, mean ± SD of three independent experiments, highest concentration tested 30 μM. The experiment is classed as biochemical.

`O=C1CSC(c2ccc([N+](=O)[O-])cc2)N1CCc1ccccc1` (stereo not drawn) [Compound 4a, 2-(4-nitrophenyl)-3-(phenylethyl)-1,3-thiazolidin-4-one]: the “SARS-CoV-2 Mpro inhibition, result in words” value (from here on “SARS-CoV-2 Mpro inhibition”) is “inactive”.

As to `O=C1CSC(c2ccc([N+](=O)[O-])cc2)N1CCc1cccc(F)c1` (stereo not drawn) [Compound 4c, 2-(4-nitrophenyl)-3-(3-fluorophenylethyl)-1,3-thiazolidin-4-one], the “SARS-CoV-2 Mpro inhibition” value is “inactive”.

Consider `COc1ccccc1CCN1C(=O)CSC1c1ccc([N+](=O)[O-])cc1` (stereo not drawn) [Compound 4e], for which the IC50 was over 30 µM and the “SARS-CoV-2 Mpro inhibition” value was “inactive”.

Turning to `COc1ccc(CCN2C(=O)CSC2c2ccc([N+](=O)[O-])cc2)cc1` (stereo not drawn) [Compound 4f], the IC50 is over 30 µM and the “SARS-CoV-2 Mpro inhibition” value was “inactive”.

`O=C1CSC(c2ccc([N+](=O)[O-])cc2)N1CCc1ccccc1Cl` (stereo not drawn) [Compound 4g]: the IC50 was 26 ± 4 µM.

As to `O=C1CSC(c2ccc([N+](=O)[O-])cc2)N1CCc1ccc(Cl)cc1` (stereo not drawn) [Compound 4i], the IC50 was over 30 µM and the “SARS-CoV-2 Mpro inhibition” value is “inactive”.
